Reference: patent US11696924B2, “Combination therapy using PDK1 and PI3K inhibitors” (MEMORIAL SLOAN-KETTERING CANCER CENTER, priority 2015, dated 2023)
“Also recorded” adds a separate entry of the source. Where two headings read alike, the source gives them in different places.

Legend:
[1] = test system: mTORC1; experiment: Western blot of mTORC1 signaling (pS6K, pS6, p4EBP1); type: cell-based; conditions: for sustained S6 phosphorylation: HCC1954 cells, presence or absence of BYL719 (1 μM)
Description: (§2) For western blot analysis proteins were extracted in RIPA buffer supplemented with protease and phosphatase inhibitors (Roche). Protein lysates were separated using SDS-PAGE gels and transferred to a PVDF membrane. Then, membranes were probed using specific antibodies. PDK1, pAKT (S473), pAKT (T308), pS6K (T389), pS6 (S240/4), pS6 (235/6), p4EBP1 (S65), PARP, Actin, pRSK (S227), cleaved Caspase 3, pFOXO1/3 (T24/T32), SGK1, SGK2, SGK3, pNDRG1 (T346), NDRG1, Flag, HA, and phospho-RXRXX(S/T) (SEQ ID NO: 1) were from Cell Signaling Technology (CST).

[2] = test system: pNDRG1 (T346); experiment: Western blot of NDRG1 phosphorylation (T346); type: cell-based
Description: A) SGK1 mRNA levels in breast cancer cell lines sensitive or resistant to BYL719 (n=27). B) SGK1 mRNA levels in PIK3CA-mutant breast cancer cell lines sensitive or resistant to BYL719. C) Western blot of SGK1, SGK2, SGK3 and phosphorylated NDRG1 in a panel of PIK3CA—mutant breast cancer cell lines sensitive or resistant to BYL719. D) Western blot for NDRG1 and phosphorylated NDRG1 (T346) in BYL719-sensitive and -resistant breast cancer cell lines treated with BYL719 (1 μM) for 4 h. […] P values are calculated using Student's t-test. Error bars are ±SEM.
A) Dose-response curves from MDA-MB-361 cells transduced with pLenti7.3-LacZ or pLenti7.3-SGK1 (Δ60, S422D) treated with increasing concentrations of BYL719 for 6 days. B) Western blot analysis of LacZ and SGK1 MDA-MB-361 cells treated with BYL719 (1 μM) for 4 h. […] The DFG motif amino acids are indicated (D240, F241, G242). […] Hydrogen bonds are shown as dotted lines. […] L) IHC analysis of tumors from K collected at the end of the experiment. M) Top panel: growth curves of HCC1954 cells stably expressing doxycycline-inducible control (REN) or SGK1 knockdown treated with increasing concentrations of BYL719 for 6 days. Bottom panel: Western blot analysis of GFP-sorted control (REN) and SGK1 shRNA cells treated with BYL719 (1 μM) for 4 h. P values are calculated using Student's t-test. Error bars are ±SEM.
(§1) Then, membranes were probed using specific antibodies.

[3] = test system: TSC2 (S939); experiment: Western blot of phosphorylated TSC2 (S939); type: cell-based; conditions: HCC1954, PD0325901 1 μM, GSK1120212 50 nM, ± BYL719, 4 h
[4] = test system: pRSK2 (S227); experiment: Western blot of phosphorylated RSK2 (S227), PDK1 target; type: cell-based; conditions: HCC1954 and JIMT1, 1 μM
Description: A) Dose-response curves from HCC1954 or JIMT1 shGFP and shPDK1 cells treated with BYL719 for 6 days. […] Staurosporine is used as a positive control (1 μM; 4 h). E) HCC1954 shGFP and shPDK1 in vivo xenograft treated with Vehicle or BYL719 (n=10/arm). F) IHC analysis of tumors from E collected at the end of the experiment. […] Staurosporine is used as a positive control (1 μM, 4 h). […] L) IHC analysis of tumors from K collected at the end of the experiment. M, N) JIMT1 in vivo xenograft tested as described in (K) and (L) for HCC1954 in vivo xenograft. P values are calculated using Student's t-test. Error bars are ±SEM.
as §1

[5] = target: mTOR (Homo sapiens, UniProt P42345); conditions: read-out: IC50, mTOR; 4EBP1 as substrate
[6] = target: SGK2 (Homo sapiens, UniProt Q9HBY8); experiment: in vitro SGK2 kinase activity assay; type: biochemical
[7] = test system: CaCO2 cells; conditions: cited from earlier work
[8] = test system: S6K signaling; experiment: Western blot of S6K targets in fibroblasts of a TSC2-null lymphangioleiomyomatosis patient; conditions: up to 30 μM, 4 h, TSC2-null LAM patient fibroblasts
Description: (§3) Recombinant GST-S6 was used as a substrate and phosphorylated S6 (S235/6) antibody was used for the detection of phosphorylated substrate by Western blot. […] Everolimus was used as a positive control at 200 nM. Error bars are ±SEM. […] Quantification of the m^7GTP-precipitated proteins is indicated in fold change. AZD8055 is used as a control at 1 μM). […] Error bars are ±SEM.
as §2

[9] = test system: S6K signaling; conditions: up to 30 μM, 4 h, TSC2 KO mouse fibroblasts
Description: as §3, §2

[10] = test system: PKC; experiment: selectivity screening, panel of 140 kinases; conditions: 1 μM
Description: (§4) IC50 value is indicated. […] Recombinant GST-S6 was used as a substrate and phosphorylated S6 (S235/6) antibody was used for the detection of phosphorylated substrate by Western blot. IC50 value is indicated. […] Everolimus was used as a positive control at 200 nM. Error bars are ±SEM. […] Quantification of the m^7GTP-precipitated proteins is indicated in fold change. AZD8055 is used as a control at 1 μM). […] Error bars are ±SEM.

[11] = target: PDK1 (Homo sapiens, UniProt O15530); experiment: selectivity screening, panel of 140 kinases; conditions: 1 μM
Description: as §4

[12] = target: S6K1; experiment: recombinant in vitro kinase assay of S6K ([…] peptide substrate); type: biochemical
[13] = test system: HCC1954 xenografts; experiment: HCC1954 in vivo xenograft; parameters: species or system mice; conditions: HCC1954 xenografts, end of the experiment
Description: Animals were maintained and treated in accordance with Institutional Guidelines of Memorial Sloan Kettering Cancer Center (Protocol number 12-10-019). 5×10^6 cells in 1:1 PBS/Matrigel (Corning) were injected subcutaneously into six-week-old female athymic Foxn1^nu nude mice.
When tumors reached a volume of ˜150 mm^3 mice were randomized, treated, and tumors were measured twice a week during a month. At least 10 tumors per group were used in all the studies. […] Tumors were harvested at the end of the experiment three hours after the last dosage, fixed in 4% formaldehyde in PBS, and paraffin-embedded. […] Primary staining was followed by 60 minutes incubation with biotinylated goat anti-rabbit IgG (Vector labs) 1:200. Blocker D, Streptavidin-HRP and DAB detection kit (Ventana Medical Systems) were used according to the manufacturer instructions.

[14] = target: SGK3 (Homo sapiens, UniProt Q96BR1); experiment: in vitro SGK3 kinase activity assay; type: biochemical
[15] = test system: RSK; experiment: selectivity screening, panel of 140 kinases; conditions: 1 μM
Description: as §4

[16] = target: S6K (Homo sapiens, UniProt P23443); experiment: selectivity screening, panel of 140 kinases; conditions: 1 μM
Description: as §4

[17] = target: SGK1 (Homo sapiens, UniProt O00141); experiment: ATP-competition assay; conditions: ATP at 100, 250, 350 and 500 μM
Description: Recombinant GST-S6 was used as a substrate and phosphorylated S6 (S235/6) antibody was used for the detection of phosphorylated substrate by Western blot.

[18] = target: AKT1 (Homo sapiens, UniProt P31749); experiment: selectivity screening, panel of 140 kinases; conditions: 1 μM
Description: as §4

[19] = test system: S6K (ΔCT T389E); experiment: S6K kinase assay in 293T cells overexpressing constitutively active S6K; type: cell-based

Sequence of AKT1 (P31749 whole entry): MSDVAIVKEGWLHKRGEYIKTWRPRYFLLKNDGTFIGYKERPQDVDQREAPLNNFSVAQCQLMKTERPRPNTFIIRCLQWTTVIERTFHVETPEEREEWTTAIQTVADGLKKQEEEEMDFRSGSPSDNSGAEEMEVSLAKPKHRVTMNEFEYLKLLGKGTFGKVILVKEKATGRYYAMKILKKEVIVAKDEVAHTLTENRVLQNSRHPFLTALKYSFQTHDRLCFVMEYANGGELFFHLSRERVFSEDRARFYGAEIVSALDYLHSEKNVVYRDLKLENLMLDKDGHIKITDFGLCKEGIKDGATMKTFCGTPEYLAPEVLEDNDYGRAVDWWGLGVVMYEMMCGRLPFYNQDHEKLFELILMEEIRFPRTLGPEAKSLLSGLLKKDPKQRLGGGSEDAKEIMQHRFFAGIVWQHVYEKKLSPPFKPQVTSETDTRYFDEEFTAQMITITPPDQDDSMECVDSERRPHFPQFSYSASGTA
Sequence of SGK2 (Q9HBY8 whole entry): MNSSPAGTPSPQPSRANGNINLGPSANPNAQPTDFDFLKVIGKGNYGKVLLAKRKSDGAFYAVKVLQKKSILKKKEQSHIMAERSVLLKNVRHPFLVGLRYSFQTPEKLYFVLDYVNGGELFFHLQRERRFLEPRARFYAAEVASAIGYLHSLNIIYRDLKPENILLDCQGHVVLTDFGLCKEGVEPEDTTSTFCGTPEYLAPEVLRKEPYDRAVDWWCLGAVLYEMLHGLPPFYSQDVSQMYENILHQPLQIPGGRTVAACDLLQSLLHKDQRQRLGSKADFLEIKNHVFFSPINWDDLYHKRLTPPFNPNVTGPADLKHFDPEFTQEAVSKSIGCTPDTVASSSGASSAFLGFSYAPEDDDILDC
Sequence of SGK1 (O00141 whole entry): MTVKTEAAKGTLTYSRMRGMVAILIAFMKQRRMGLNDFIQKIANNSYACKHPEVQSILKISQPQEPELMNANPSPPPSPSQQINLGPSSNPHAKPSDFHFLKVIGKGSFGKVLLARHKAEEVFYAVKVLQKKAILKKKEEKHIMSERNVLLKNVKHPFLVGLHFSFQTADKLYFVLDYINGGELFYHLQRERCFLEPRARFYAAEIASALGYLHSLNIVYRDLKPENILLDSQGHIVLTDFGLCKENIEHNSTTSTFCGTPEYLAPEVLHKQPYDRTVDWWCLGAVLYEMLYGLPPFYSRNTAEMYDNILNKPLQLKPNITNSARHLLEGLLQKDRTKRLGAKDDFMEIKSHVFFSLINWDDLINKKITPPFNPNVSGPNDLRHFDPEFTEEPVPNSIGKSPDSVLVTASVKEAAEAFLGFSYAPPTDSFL
Sequence of S6K (P23443 whole entry): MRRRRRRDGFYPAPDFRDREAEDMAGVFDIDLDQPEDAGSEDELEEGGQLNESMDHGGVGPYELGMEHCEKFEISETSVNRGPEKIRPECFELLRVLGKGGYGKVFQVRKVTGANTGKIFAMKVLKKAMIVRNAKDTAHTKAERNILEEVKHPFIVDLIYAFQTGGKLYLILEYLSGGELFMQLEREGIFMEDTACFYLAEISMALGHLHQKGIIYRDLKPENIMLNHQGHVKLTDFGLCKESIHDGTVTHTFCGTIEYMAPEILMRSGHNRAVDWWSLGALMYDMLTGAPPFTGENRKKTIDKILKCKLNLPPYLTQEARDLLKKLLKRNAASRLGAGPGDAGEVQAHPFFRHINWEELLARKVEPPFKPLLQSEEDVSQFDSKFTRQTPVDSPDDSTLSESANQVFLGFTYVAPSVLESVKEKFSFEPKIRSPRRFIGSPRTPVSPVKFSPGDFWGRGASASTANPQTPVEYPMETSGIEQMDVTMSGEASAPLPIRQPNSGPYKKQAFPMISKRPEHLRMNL
Sequence of PDK1 (O15530 whole entry): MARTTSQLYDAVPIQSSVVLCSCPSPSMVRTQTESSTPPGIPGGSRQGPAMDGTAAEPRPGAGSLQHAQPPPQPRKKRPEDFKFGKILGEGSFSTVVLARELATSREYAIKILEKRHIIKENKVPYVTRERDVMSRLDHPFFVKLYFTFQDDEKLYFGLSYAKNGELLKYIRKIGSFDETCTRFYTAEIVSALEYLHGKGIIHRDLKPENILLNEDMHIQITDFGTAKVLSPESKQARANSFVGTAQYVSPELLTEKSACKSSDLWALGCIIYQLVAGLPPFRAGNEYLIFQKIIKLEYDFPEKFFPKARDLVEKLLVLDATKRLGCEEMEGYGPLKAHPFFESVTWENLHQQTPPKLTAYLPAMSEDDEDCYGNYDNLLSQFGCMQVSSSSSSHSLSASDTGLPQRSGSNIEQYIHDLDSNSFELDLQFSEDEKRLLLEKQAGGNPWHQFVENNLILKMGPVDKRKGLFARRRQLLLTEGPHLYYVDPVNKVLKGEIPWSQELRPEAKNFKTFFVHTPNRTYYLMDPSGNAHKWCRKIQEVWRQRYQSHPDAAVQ
Sequence of SGK3 (Q96BR1 whole entry): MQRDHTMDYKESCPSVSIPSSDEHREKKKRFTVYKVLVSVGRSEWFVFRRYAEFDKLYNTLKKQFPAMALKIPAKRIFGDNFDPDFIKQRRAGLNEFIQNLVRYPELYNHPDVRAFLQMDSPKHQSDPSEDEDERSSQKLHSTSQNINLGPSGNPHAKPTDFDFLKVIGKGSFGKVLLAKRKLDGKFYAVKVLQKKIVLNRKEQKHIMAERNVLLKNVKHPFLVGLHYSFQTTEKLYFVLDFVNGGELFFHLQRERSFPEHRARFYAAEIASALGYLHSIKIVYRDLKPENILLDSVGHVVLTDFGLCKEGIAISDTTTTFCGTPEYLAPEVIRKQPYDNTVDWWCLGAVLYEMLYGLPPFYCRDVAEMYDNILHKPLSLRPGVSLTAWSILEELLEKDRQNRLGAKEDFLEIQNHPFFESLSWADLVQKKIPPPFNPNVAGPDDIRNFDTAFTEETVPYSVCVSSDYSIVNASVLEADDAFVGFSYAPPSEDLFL

## O=CC[C@@H](O)[C@H](O)[C@H](O)CO [2-deoxyglucose]
[1]
  sustained S6 phosphorylation: unable to rescue the sustained phosphorylation of S6

## N#Cc1c(O)c2c(-c3ccc(-c4ccccc4O)cc3)csc2[nH]c1=O [A769662]
[1]
  sustained S6 phosphorylation: unable to rescue the sustained phosphorylation of S6

## COc1ccc(-c2ccc3c(N4CCOC[C@@H]4C)nc(N4CCOC[C@@H]4C)nc3n2)cc1CO [AZD8055]
[2]; HCC1954, increasing concentrations, single agent
  pFOXO3 (T32) and pNDRG1 (T346) levels: did not reduce the levels of the substrates pFOXO3 (T32) and pNDRG1 (T346)

## CC(=O)Nc1cccc(-n2c(=O)n(C3CC3)c(=O)c3c(Nc4ccc(I)cc4F)n(C)c(=O)c(C)c32)c1 [GSK1120212]
[3]
  TSC2 phosphorylation at S939 (or mTORC1 downstream signaling): did not detect changes in TSC2 phosphorylation at S939

## CNc1nc(-c2ccc3c(N)n[nH]c3c2)cc(N2C[C@@H](C(=O)NC3CCCCC3)CC[C@H]2C)n1 [GSK2334470]
[2]; HCC1954, GSK2334470 1 μM plus AZD8055
  phosphorylation of FOXO3 and NDRG1, added to AZD8055: marked decrease in the phosphorylation of both FOXO3 and NDRG1
[4]
  pRSK2 (S227): appreciably reduced; also recorded: inhibited when cells are treated with GSK2334470 alone or in combination

## O=C(NOC[C@H](O)CO)c1ccc(F)c(F)c1Nc1ccc(I)cc1F [PD0325901]
[3]
  TSC2 phosphorylation at S939 (or mTORC1 downstream signaling): did not detect changes in TSC2 phosphorylation at S939

## Nc1n[nH]c2nc(-c3ccc(NS(=O)(=O)c4cccc(Cl)c4Cl)cc3)cnc12 [SGK1-inh]
[5]
  IC50: > 5000 nM
[2]; HCC1954 cells, 4 hours, in the presence of BYL719 (1 μM)
  appropriate concentration to inhibit endogenous SGK1 (NDRG1 phosphorylation): 10 µM
[6]
  IC50: 2.8 nM
[7]
  permeability: 13.3 ×10⁻⁶ cm/s
[8]
  S6K signaling: pS6 (S235/6), pS6 (S240/4), pmTOR (S2448): not able to reduce S6K signaling
[9]
  S6K signaling: pS6 (S235/6), pS6 (S240/4), pmTOR (S2448): not able to reduce S6K signaling
[10]
  activity against PKC: no activity
[11]
  activity against PDK1: no activity
[12]
  IC50: 33 nM
[13]
  pS6 (S240/4) and 4EBP1 (T37/46) in tumors, IHC: remained elevated
[14]
  IC50: 590 nM
[15]
  activity against RSK: no activity
[1]; BYL719-resistant cells (HCC1954, JIMT1), 4 h, BYL719 1 μM, GSK2334470 1 μM, SGK1-inh 10 μM
  mTORC1 signaling: some activity towards S6K signaling
[16]
  activity against S6K: inhibited
[17]
  effect of increasing ATP on potency: decreased the potency
[18]
  activity against AKT1: no activity
[19]; 293T cells, HA-S6K (ΔCT T389E), GST-S6 substrate, read-out: IC50, S6K at the cellular level
  IC50: ~20000 nM
[19]; conclusion from cellular S6K assays
  concentrations below which there is no activity towards S6K: 20 to 30 µM
